From patent US20210353614A1, “COMPOUNDS AND USES THEREOF TO TREAT TUMORS IN A SUBJECT” (Merck Patent GMBH, priority 2018, published 2021)
Read-outs that look alike come from different tables or passages of the source.

Legend:
[1] = tested on: human colon cancer xenograft model SW620; experiment: CRC xenograft model, ATM inhibitors in combination with irinotecan; assay type: in vivo, mice
Experimental: Animals were treated with three 1-week cycles of a combination of irinotecan and the respective ATM inhibitors, or the respective monotherapy control arms. One cycle consisted of one irinotecan application (ip) at a dose of 50 mg/kg, followed by 100, and 50 mg/kg of ATMi 1, or 10 and 25 mg/kg of ATMi 2 (po) 24 h later and for four subsequent days.

colon cancer cell line [2] = experiment: GI50 of SN38 and of the combination with ATMi2; assay type: cell-based
colon cancer cell line [3] = experiment: Immunogenic cell death induction (calreticulin, HSP70, HSP90 surface expression, ATP and HMGB1 release, caspase-3/7); assay type: cell-based
Experimental: […]. The inhibitor for ATM and SN38 were tested as single agents and in combination at the concentrations of the GI50 of the combination. The GI50 of SN38 was included as a positive control for induction of immunogenic cell death. […] Cell surface expression of calreticulin, HSP70 and HSP90 was analysed by Flow Cytometry, ATP secretion by ATPlite assay Perkin Elmer, HMGB1 release by HMGB1 Elisa (IBL International) and apoptosis by Caspase-Glo 3/7 Assay Systems (measures caspase-3/7 activities).
Analyses of DAMPs (Calreticulin, HSP70, HSP90, HMGB1 and ATP) were carried out whithin the same sample. Cells were treated 24 hours after seeding and analyses performed 72 hours post-treatment. Cells were used for FACS analyses and supenatants for ATP and HMGB1 measurements. Caspase-Glo 3/7 was carried out in parallel following the same treatment schedule.
For FACS analyses, an unstained sample was used as a gating control and an isotype sample to measure unspecific antibody binding. % PE positive cells represent cells with cell surface expression of the tested marker (all markers were conjugated with PE and tested independently). ATP secretion, HMGB1 release and apoptosis were carried out accordingly to the protocols provided by the commercial supplier (data represented as the average of two independent biological repeats).

[4] = combination ATMi 2 25 mg/kg + irinotecan, d28
[5] = combination ATMi 2 25 mg/kg po + irinotecan 50 mg/kg ip, day 21

## COc1cc2ncc3c(c2cc1-c1cn(C)nc1C)n(-c1c(F)cncc1OC)c(=O)n3C [ATMi 2, 8-(1,3-Dimethyl-1H-pyrazol-4-yl)-1-(3-fluoro-5-methoxy-pyridin-4-yl)-7-methoxy-3-methyl-1,3-dihydro-imidazo[4,5-c]quinolin-2-one]
[1]; [4]
  partial responses (tumor volume >30% decrease): 2/10
  stable diseases (tumor volume change between 30% decrease and 73% increase): 3/10
[1]; combination ATMi 2 25 mg/kg + irinotecan, d28, one week after stop of treatment
  animals progression free (<73% increase in tumor volume compared to starting volume): 5/10
[1]; [5]
  decrease of mean tumor volume compared to starting volume: ~87%
  mean tumor volume: 53 mm^3
Colon cancer cell line [2]; in combination with 0.4 nM SN38, read-out: GI50 of the combination (ATMi2 concentration)
  GI50: 250 nM
Colon cancer cell line [3]; ATMi2 single agent at 250 nM, 72 hours post-treatment
  induction of immunogenic cell death: not
Colon cancer cell line [3]; combination 250 nM ATMi2 + 0.4 nM SN38, 72 hours post-treatment
  induction of immunogenic cell death: clear induction of immunogenic cell death

## CCc1c2c(nc3ccc(O)cc13)-c1cc3c(c(=O)n1C2)COC(=O)[C@]3(O)CC [SN38, reference compound]
Colon cancer cell line [2]; SN38 as single agent, read-out: GI50
  GI50: 2 nM
Colon cancer cell line [2]; in combination with 250 nM ATMi2, read-out: GI50 of the combination (SN38 concentration)
  GI50: 0.4 nM
Colon cancer cell line [3]; SN38 at its GI50 (2 nM), 72 hours post-treatment
  induction of immunogenic cell death: clear induction of immunogenic cell death
Colon cancer cell line [3]; SN38 single agent at 0.4 nM, 72 hours post-treatment
  induction of immunogenic cell death: not

## CCc1c2c(nc3ccc(OC(=O)N4CCC(N5CCCCC5)CC4)cc13)-c1cc3c(c(=O)n1C2)COC(=O)[C@]3(O)CC [irinotecan, reference compound]
[1]; irinotecan arm, day 28
  disease status: all animals showed progressive disease
